# The source made the active and inactive calls. The calls are words filed in the database; no cut-off is given here.
# Legend:
# HCT-116 [1] = assay: Induction of apoptosis in human HCT-116 cells assessed as downregulation of BCL-2 expression at 0.5 to 2 uM incubated for 24 hrs by Western blotting analysis; format: functional, cell-based; details: dose 0.5-2 µM
# [2] = Toxicity in BALB/c mouse xenografted with human MDA-MB-231 cells assessed as morphological change in liver at 20 mg/kg,ip administrated for 21 consecutive days by hematoxylin and eosin staining based analysis; format: organism-based; details: in vivo
# CDK4/Cyclin D3 = CDK4/Cyclin D3 (Homo sapiens, UniProt P11802); assay: Inhibition of CDK4/CyclinD3 (unknown origin) preincubated for 15 mins followed by substrate and ATP addition incubated for 10 mins by ADP-glo luminescent assay; format: protein-complex assay
# Sequence of CDK4/Cyclin D3 (P11802 whole entry): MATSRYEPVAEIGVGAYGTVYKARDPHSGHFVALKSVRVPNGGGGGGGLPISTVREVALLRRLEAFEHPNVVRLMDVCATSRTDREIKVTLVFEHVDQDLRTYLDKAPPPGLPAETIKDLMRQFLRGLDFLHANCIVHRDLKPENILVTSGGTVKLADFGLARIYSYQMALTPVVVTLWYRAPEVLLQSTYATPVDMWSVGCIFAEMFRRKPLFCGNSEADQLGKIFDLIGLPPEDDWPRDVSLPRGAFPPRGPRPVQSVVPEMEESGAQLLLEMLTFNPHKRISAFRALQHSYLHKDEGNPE
# Sequence of CDK4/Cyclin D3 (P30281 whole entry, further chain): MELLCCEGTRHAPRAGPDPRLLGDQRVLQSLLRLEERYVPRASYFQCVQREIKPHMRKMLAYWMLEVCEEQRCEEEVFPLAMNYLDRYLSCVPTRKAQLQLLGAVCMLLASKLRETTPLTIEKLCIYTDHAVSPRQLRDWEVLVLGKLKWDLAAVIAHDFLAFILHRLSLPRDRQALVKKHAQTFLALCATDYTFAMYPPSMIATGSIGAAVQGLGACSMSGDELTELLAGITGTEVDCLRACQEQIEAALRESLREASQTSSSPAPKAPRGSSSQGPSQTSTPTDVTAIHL
# HCT-116 [3] = assay: Induction of apoptosis in human HCT-116 cells incubated for 24 hrs by annexin-V-FITC/PI staining based flow cytometric analysis; format: functional, cell-based
# [4] = Toxicity in BALB/c mouse xenografted with human MDA-MB-231 cells assessed as change in body weight at 40 mg/kg,ip administrated for 21 consecutive days; format: organism-based; details: in vivo
# MDA-MB-231 [5] = assay: Antitumor activity against human MDA-MB-231 cells xenografted in BALB/c mouse assessed as tumor growth inhibition at 40 mg/kg,ip administrated for 21 consecutive days; format: functional; details: read-out: TGI
# [6] = Toxicity in BALB/c mouse xenografted with human MDA-MB-231 cells assessed as morphological change in lung at 20 mg/kg,ip administrated for 21 consecutive days by hematoxylin and eosin staining based analysis; format: organism-based; details: in vivo
# HCT-116 [7] = assay: Induction of cell cycle arrest in human HCT-116 cells assessed as downregulation of E2F1 expression at 0.5 to 2 uM incubated for 24 hrs by Western blotting analysis; format: functional, cell-based; details: dose 0.5-2 µM
# CDK6/cyclin D3 = CDK6/cyclin D3 (Homo sapiens, UniProt Q00534); assay: Inhibition of CDK6/CyclinD3 (unknown origin) preincubated for 15 mins followed by substrate and ATP addition incubated for 10 mins by ADP-glo luminescent assay; format: protein-complex assay
# Sequence of CDK6/cyclin D3 (P30281 whole entry): as the sequence (P30281 whole entry, further chain) above
# Sequence of CDK6/cyclin D3 (Q00534 whole entry): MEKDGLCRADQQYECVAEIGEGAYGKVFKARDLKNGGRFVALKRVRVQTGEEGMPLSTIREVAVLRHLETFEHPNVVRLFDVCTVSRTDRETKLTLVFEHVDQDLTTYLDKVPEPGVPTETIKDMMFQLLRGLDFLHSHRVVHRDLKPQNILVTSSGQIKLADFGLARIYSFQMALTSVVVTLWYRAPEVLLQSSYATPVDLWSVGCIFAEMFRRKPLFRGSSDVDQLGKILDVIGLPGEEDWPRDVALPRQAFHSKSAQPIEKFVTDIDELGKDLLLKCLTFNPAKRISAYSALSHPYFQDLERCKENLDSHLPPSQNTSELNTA
# [8] = Intrinsic clearance in human liver microsomes in presence of NADPH incubated for 5 to 45 mins by LC/MS analysis; format: ADME, Microsome; details: time 5-45 min, read-out: CLH
# HCT-116 [9] = assay: Induction of ferroptosis in human HCT-116 cells assessed as increase in intracellular ferrous ion level at 0.5 to 2 uM incubated for 24 hrs by ferroOrange probe based confocal laser scanning microscopic analysis; format: functional, cell-based; details: dose 0.5-2 µM
# [10] = Tmax in Sprague-Dawley rat at 10 mg/kg,iv administration measured upto 24 hrs by LC-MS/MS analysis; format: ADME, organism-based; details: in vivo
# [11] = Toxicity in BALB/c mouse xenografted with human MDA-MB-231 cells assessed as change in body weight at 20 mg/kg,ip administrated for 21 consecutive days; format: organism-based; details: in vivo
# HCT-116 [12] = assay: Induction of ferroptosis in human HCT-116 cells assessed as increase in intracellular lipid peroxide level incubated for 24 hrs by […] staining based confocal laser scanning microscopic analysis; format: functional, cell-based
# MDA-MB-231 [13] = assay: Antitumor activity against human MDA-MB-231 cells xenografted in BALB/c mouse assessed as decrease in GPX4 expression at 20 mg/kg,ip administrated for 21 consecutive days by immunohistochemistry; format: functional, organism-based
# HCT-116 [14] = assay: Induction of cell cycle arrest in human HCT-116 cells assessed as accumulation of cells at G1 phase at 0.5 to 2 uM incubated for 24 hrs by RNase/PI staining based flow cytometric analysis; format: functional; details: dose 0.5-2 µM
# MDA-MB-231 [15] = assay: Induction of cell cycle arrest in human MDA-MB-231 cells assessed as downregulation of E2F1 expression at 0.5 to 2 uM incubated for 24 hrs by Western blotting analysis; format: functional, cell-based; details: dose 0.5-2 µM
# MDA-MB-231 [16] = assay: Induction of cell cycle arrest in human MDA-MB-231 cells assessed as downregulation of phoshorylated Rb at 0.5 to 2 uM incubated for 24 hrs by Western blotting analysis; format: functional, cell-based; details: dose 0.5-2 µM
# [17] = Toxicity in BALB/c mouse xenografted with human MDA-MB-231 cells assessed as morphological change in spleen at 20 mg/kg,ip administrated for 21 consecutive days by hematoxylin and eosin staining based analysis; format: organism-based; details: in vivo
# [18] = Toxicity in ICR mouse assessed as lethal dose at ip administration for 14 days; format: organism-based; details: in vivo, time 14 day
# MDA-MB-231 [19] = assay: Induction of ferroptosis in human MDA-MB-231 cells assessed as increase in intracellular lipid peroxide level incubated for 24 hrs by flow cytometric analysis; format: functional, cell-based
# HepG2 = assay: cells; details: Homo sapiens, HepG2, 48 h
# Description: Antiproliferative activity against human HepG2 cells assessed as inhibition of cell growth incubated for 48 hrs by CCK-8 assay
# MDA-MB-231 [20] = assay: Induction of ferroptosis in human MDA-MB-231 cells assessed as increase in intracellular ferrous ion level at 0.5 to 2 uM incubated for 24 hrs by ferroOrange probe based confocal laser scanning microscopic analysis; format: functional, cell-based; details: dose 0.5-2 µM
# MDA-MB-231 [21] = assay: Induction of ferroptosis in human MDA-MB-231 cells assessed as increase in intracellular lipid peroxide level incubated for 24 hrs by […] staining based confocal laser scanning microscopic analysis; format: functional, cell-based
# MDA-MB-231 [22] = assay: Induction of apoptosis in human MDA-MB-231 cells incubated for 24 hrs by annexin-V-FITC/PI staining based flow cytometric analysis; format: functional, cell-based
# [23] = Half life in Sprague-Dawley rat at 10 mg/kg,iv administration measured upto 24 hrs by LC-MS/MS analysis; format: ADME, organism-based; details: in vivo
# [24] = biological target: CDK2/Cyclin A2 (Homo sapiens) (UniProt P24941+P20248); assay: Inhibition of CDK2/CyclinA2 (unknown origin) at 100 nM preincubated for 15 mins followed by substrate and ATP addition incubated for 10 mins by ADP-glo luminescent assay relative to control; format: protein-complex assay; details: time 25.0 min
# HCT-116 [25] = assay: Induction of ferroptosis in human HCT-116 cells assessed as increase in intracellular ferrous ion level at 0.5 to 2 uM incubated for 24 hrs by ferroOrange probe based flow cytometric analysis; format: functional, cell-based; details: dose 0.5-2 µM
# [26] = biological target: CDK6/cyclin D3 (Homo sapiens) (UniProt P30281+Q00534); assay: Inhibition of CDK6/CyclinD3 (unknown origin) at 100 nM preincubated for 15 mins followed by substrate and ATP addition incubated for 10 mins by ADP-glo luminescent assay relative to control; format: protein-complex assay; details: time 25.0 min
# [27] = MRT (0 to t) in Sprague-Dawley rat at 10 mg/kg,iv administration measured upto 24 hrs by LC-MS/MS analysis; format: ADME, organism-based; details: in vivo
# [28] = Toxicity in BALB/c mouse xenografted with human MDA-MB-231 cells assessed as morphological change in kidney at 40 mg/kg,ip administrated for 21 consecutive days by hematoxylin and eosin staining based analysis; format: organism-based; details: in vivo
# MDA-MB-231 [29] = assay: Antitumor activity against human MDA-MB-231 cells xenografted in BALB/c mouse assessed as decrease in phosphorylated Rb expression at 40 mg/kg,ip administrated for 21 consecutive days by immunohistochemistry; format: functional, organism-based
# [30] = Half life in human liver microsomes in presence of NADPH incubated for 5 to 45 mins by LC/MS analysis; format: ADME, Microsome; details: time 5-45 min
# HCT-116 [31] = assay: Induction of apoptosis in human HCT-116 cells assessed as upregulation of Bax expression at 0.5 to 2 uM incubated for 24 hrs by Western blotting analysis; format: functional, cell-based; details: dose 0.5-2 µM
# [32] = Clearance in Sprague-Dawley rat at 10 mg/kg,iv administration measured upto 24 hrs by LC-MS/MS analysis; format: ADME, organism-based; details: in vivo
smiles,measurement,setting,value
COc1ccc2c(c1)NC(=O)/C2=C1\Nc2ccccc2\C1=N/OCCCNC(=O)CCn1cc(COc2ccc(N(C(=O)CCl)C(C(=O)NCCc3ccccc3)c3cccs3)cc2Cl)nn1 (stereo not given),Activity,HCT-116 [1],Active
same,Activity,[2],Non-Toxic
same,IC50,CDK4/Cyclin D3,191 nM
same,Activity,HCT-116 [3],Dose-Dependent Effect
same,Activity,[4],Non-Toxic
same,inhibition in vivo at 40 mg/kg,MDA-MB-231 [5],83.3%
same,Activity,[6],Non-Toxic
same,Activity,HCT-116 [7],Active
same,IC50,CDK6/cyclin D3,68.1 nM
same,CLint scaled,[8],27.3 mL/min/kg
same,Activity,HCT-116 [9],Active
same,Tmax,[10],0.8 h
same,Activity,[11],Non-Toxic
same,Activity,HCT-116 [12],Dose-Dependent Effect
same,Activity,MDA-MB-231 [13],Active
same,Activity,HCT-116 [14],Active
same,Activity,MDA-MB-231 [15],Active
same,Activity,MDA-MB-231 [16],Active
same,Activity,[17],Non-Toxic
same,LD50 at 336 h,[18],185 mg/kg
same,Activity,MDA-MB-231 [19],Dose-Dependent Effect
same,IC50,HepG2,1490 nM
same,Activity,MDA-MB-231 [20],Active
same,Activity,MDA-MB-231 [21],Dose-Dependent Effect
same,Activity,MDA-MB-231 [22],Dose-Dependent Effect
same,half-life,[23],5.4 h
same,inhibition,[24],10.7%
same,Activity,HCT-116 [25],Active
same,inhibition,[26],51.8%
same,MRT last at 24 h,[27],3.6 h
same,Activity,[28],Non-Toxic
same,Activity,MDA-MB-231 [29],Active
same,half-life,[30],0.978 h
same,Activity,HCT-116 [31],Active
same,clearance,[32],10.2 mL/min/kg
